Results on 1 compound are retold here after patent publication US7897630B2, “5-aryl isoxazolines for controlling invertebrate pests” (E.I. du Pont de Nemours and Company, priority 2005, dated 2011).

For this assay, the system named is cat flea (Ctenocephalides felis Bouche). Put plainly: Test H: control of cat flea on orally dosed CD-1 mouse. In kind it is in vivo. Particulars: oral 10 mg/kg, fleas applied 2 hours after dosing, evaluated 48 hours after flea application. As for the experimental part: For evaluating control of the cat flea (Ctenocephalides felis Bouche), a CD-1® mouse (about 30 g, male, obtained from Charles River Laboratories, Wilmington, Mass.) was orally dosed with a test compound in an amount of 10 mg/kg solubilized in propylene glycol/glycerol formal (60:40). Two hours after oral administration of the test compound, approximately 8 to 16 adult fleas were applied to each mouse. The fleas were then evaluated for mortality 48 hours after flea application to the mouse.

Molecules are shown by their SMILES.

`CSc1ccc(C2=NOC(c3cc(Cl)cc(Cl)c3)(C(F)(F)F)C2)cc1Br` (racemic) [Compound 205] gave a flea mortality of no less than 20%.
